# Assay results taken from patent publication US9670142B2, “1,3-diaminocyclopentane carboxamide derivatives” (Merck Patent GmbH, priority 2013, dated 2017).
# Target: human fatty acid synthase FASN (Homo sapiens (Human), UniProt P49327)
# Test: Biochemical activity testing of human fatty acid synthase FASN (NADPH fluorescence intensity enzyme assay)
# Settings: human recombinant full-length fatty acid synthase
# In short: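 In-house Sf9-expressed full-length enzyme (3 μL of 40 nM) in 50 mM potassium phosphate pH 7.0 with glutathione, BSA and Tween-20, plus NADPH (2 μL of 200 μM), preincubated ≥15 min with compound (10 concentrations from 30 μM final, 1% DMSO). Acetyl-CoA/malonyl-CoA added; NADPH fluorescence (ex 340/em 460 nm) read before and after 30 min at room temperature, difference used for IC50.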
# Sequence of human fatty acid synthase FASN (P49327 whole entry): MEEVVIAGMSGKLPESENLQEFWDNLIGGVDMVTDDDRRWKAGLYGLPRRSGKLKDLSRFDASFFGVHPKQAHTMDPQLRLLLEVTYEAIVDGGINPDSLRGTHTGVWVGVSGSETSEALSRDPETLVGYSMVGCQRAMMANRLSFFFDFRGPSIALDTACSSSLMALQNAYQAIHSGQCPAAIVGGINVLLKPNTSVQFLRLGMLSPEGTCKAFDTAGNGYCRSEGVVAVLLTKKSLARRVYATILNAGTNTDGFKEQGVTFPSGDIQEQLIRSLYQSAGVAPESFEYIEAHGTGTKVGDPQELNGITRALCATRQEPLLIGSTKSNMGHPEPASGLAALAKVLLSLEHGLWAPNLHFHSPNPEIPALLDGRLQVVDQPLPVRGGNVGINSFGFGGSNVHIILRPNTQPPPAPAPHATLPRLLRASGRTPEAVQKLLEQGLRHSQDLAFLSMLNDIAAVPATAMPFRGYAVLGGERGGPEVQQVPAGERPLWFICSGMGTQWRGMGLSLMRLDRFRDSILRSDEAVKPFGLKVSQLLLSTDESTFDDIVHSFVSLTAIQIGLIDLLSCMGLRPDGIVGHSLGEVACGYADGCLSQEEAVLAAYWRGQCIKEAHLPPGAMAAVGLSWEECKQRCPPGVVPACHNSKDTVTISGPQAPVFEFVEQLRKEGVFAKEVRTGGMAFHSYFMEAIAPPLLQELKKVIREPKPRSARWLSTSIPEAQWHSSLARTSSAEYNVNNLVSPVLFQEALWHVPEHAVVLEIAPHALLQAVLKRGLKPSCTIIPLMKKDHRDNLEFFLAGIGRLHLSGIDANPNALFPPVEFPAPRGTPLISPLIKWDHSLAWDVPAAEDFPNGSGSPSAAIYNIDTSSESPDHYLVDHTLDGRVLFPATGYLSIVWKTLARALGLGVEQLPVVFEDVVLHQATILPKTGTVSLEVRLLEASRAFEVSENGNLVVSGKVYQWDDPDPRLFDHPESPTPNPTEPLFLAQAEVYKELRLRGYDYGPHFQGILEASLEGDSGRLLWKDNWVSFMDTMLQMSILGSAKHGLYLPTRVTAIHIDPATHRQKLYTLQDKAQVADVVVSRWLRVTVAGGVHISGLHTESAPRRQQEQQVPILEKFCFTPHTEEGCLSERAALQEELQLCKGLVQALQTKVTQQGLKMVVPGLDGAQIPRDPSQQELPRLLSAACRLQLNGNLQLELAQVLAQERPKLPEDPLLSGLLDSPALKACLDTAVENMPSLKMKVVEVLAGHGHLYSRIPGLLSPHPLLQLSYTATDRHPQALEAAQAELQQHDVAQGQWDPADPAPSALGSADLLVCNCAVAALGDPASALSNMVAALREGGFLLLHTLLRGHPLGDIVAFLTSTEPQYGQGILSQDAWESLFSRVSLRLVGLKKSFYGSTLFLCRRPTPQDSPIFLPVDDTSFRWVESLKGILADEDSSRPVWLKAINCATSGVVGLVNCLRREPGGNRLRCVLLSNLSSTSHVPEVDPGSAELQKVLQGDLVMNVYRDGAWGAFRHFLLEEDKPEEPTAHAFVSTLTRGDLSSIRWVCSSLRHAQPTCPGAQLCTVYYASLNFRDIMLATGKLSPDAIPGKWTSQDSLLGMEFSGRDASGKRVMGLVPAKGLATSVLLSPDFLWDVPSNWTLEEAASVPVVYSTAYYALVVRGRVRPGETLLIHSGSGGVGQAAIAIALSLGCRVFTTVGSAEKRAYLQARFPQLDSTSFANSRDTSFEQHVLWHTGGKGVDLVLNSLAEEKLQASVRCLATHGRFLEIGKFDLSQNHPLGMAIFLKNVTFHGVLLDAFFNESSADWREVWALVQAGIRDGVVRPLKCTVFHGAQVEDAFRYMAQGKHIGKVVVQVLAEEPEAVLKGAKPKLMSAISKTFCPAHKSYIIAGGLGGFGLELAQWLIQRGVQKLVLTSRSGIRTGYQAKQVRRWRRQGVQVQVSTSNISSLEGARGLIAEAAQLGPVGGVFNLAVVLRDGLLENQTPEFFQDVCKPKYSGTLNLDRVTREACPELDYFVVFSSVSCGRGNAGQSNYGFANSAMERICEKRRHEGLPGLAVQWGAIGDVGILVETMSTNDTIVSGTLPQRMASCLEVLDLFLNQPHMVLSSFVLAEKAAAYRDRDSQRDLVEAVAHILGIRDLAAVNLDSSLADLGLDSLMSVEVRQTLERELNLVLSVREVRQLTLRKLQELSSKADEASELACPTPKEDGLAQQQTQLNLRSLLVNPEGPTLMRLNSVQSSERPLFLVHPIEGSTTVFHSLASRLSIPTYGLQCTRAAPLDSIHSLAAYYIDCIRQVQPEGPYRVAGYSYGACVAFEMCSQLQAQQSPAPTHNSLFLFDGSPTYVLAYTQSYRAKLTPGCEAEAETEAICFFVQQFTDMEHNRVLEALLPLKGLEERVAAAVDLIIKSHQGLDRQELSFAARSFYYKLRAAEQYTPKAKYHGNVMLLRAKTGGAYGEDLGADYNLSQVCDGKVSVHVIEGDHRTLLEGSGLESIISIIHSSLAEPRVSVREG
row,Structure (SMILES),IC50 [nM]
1,"CCC(=O)N[C@H]1CC[C@@H](N(C)C(=O)c2ccc(-c3cc(F)c4[nH]cc(C(N)=O)c4c3)c(F)c2)C1 [Compound A172, 7-fluoro-5-{2-fluoro-4-[methyl-((1R,3S)-3-propionylamino-cyclopentyl)-carbamoyl]-phenyl}-1H-indole-3-carboxylic acid amide]",300 to 3000
2,"CCC(=O)N[C@H]1CC[C@@H](N(C)C(=O)c2ccc(-c3ccc4[nH]cc(C#N)c4c3)cc2)C1 [Compound A99a, 4-(3-cyano-1H-indol-5-yl)-N-methyl-N-((1R,3S)-3-propionylamino-cyclopentyl)-benzamide]",< 300
3,"CCC(=O)N[C@H]1CC[C@@H](N(C)C(=O)c2ccc(-c3ccc4ncsc4c3)cc2)C1 [Compound A59, 4-benzothiazol-6-yl-N-methyl-N-((1R,3S)-3-propionylamino-cyclopentyl)-benzamide]",< 300
4,"CC(C)C(=O)N[C@H]1CC[C@@H](N(C)C(=O)c2ccc(-c3nc4ccccc4o3)cc2)C1 [Compound A17, 4-benzoxazol-2-yl-N-((1R,3S)-3-isobutyrylamino-cyclopentyl)-N-methyl-benzamide]",< 300
5,"CCC(=O)N[C@H]1CC[C@@H](N(C)C(=O)c2ccc(-c3ccc4c(ccn4C)c3)cn2)C1 [Compound A110, 5-(1-methyl-1H-indol-5-yl)-pyridine-2-carboxylic acid methyl-((1R,3S)-3-propionylamino-cyclopentyl)-amide]",< 300
6,"CCC(=O)N[C@H]1CC[C@@H](N(C)C(=O)c2cnc(-c3ccc4[nH]ccc4c3F)cc2C)C1 [Compound A146, 6-(4-fluoro-1H-indol-5-yl)-4,N-dimethyl-N-((1R,3S)-3-propionylamino-cyclopentyl)-nicotinamide]",< 300
7,"CCC(=O)N[C@H]1CC[C@@H](N(C)C(=O)c2ccc(-c3ccc4c(c3)CC(=O)N4)cc2)C1 [Compound A94, N-methyl-4-(2-oxo-2,3-dihydro-1H-indol-5-yl)-N-((1R,3S)-3-propionylamino-cyclopentyl)-benzamide]",< 300
8,"CN(C(=O)c1ccc(-c2nc3ccc(Cl)cc3o2)nn1)[C@@H]1CC[C@H](NC(=O)[C@@H]2CCCO2)C1 [Compound A158, 6-(6-chloro-1,3-benzoxazol-2-yl)-N-methyl-N-[(1R,3S)-3-[[(2S)-tetrahydrofuran-2-carbonyl]amino]cyclopentyl]pyridazine-3-carboxamide]",300 to 3000
